According to patent US20230265151A1, “GIP/GLP1 CO-AGONIST COMPOUNDS” (priority 2020, published 2023):
Where two headings read alike, the source gives them in different places.

Tests used:
Assay type in all cases: cell-based
hGIPR = target: T1, hGIPR (Homo sapiens, UniProt P48546); test: Functional cAMP formation (HTRF) in HEK-293 clonal cells expressing hGIPR, 0.1% bovine casein, without or with 1.0% human serum albumin; conditions: for Emax: percent of maximal response to GIP(1-42)NH2; for EC50: cAMP, 0.1% bovine casein (no human serum albumin), geometric mean
T1 construct: expressed in transfected cells
T1 sequence (P48546 22-466): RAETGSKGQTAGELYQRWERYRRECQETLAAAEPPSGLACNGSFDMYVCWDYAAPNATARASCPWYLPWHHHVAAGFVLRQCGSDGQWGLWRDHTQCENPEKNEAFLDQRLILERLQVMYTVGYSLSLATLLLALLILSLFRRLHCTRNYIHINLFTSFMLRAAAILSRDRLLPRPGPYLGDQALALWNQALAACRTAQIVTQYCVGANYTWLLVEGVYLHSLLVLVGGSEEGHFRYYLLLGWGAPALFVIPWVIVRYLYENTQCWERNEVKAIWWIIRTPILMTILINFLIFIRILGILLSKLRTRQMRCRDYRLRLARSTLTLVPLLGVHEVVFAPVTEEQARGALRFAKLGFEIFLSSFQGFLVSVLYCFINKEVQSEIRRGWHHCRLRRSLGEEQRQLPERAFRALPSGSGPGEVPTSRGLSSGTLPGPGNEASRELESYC
Procedure, shortened: (§1)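 Cells were stimulated with peptide for 30 min at 37° C, then intracellular cAMP was measured by competitive HTRF (665/620 nm ratio) and converted to nM using a cAMP standard curve. Relative EC50 and Emax came from four-parameter logistic fits of percent maximal response against peptide concentration.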

hGLP-1R = hGLP-1R (Homo sapiens, UniProt P43220); test: Functional cAMP formation (HTRF) in HEK-293 clonal cells expressing hGLP-1R, 0.1% bovine casein, without or with 1.0% human serum albumin; parameters: expressed in transfected cells; conditions: for Emax: percent of maximal response to GLP-1(7-36)NH2, arithmetic mean; for EC50: cAMP, 0.1% bovine casein (no human serum albumin), geometric mean
Procedure, shortened: as §1

hGCGR = target: T2, hGCGR (Homo sapiens, UniProt P47871); test: Functional cAMP formation (HTRF) in HEK-293 clonal cells expressing hGCGR, 0.1% bovine casein, without or with 1.0% human serum albumin; conditions: cAMP, 37° C.
T2 construct: expressed in transfected cells
Procedure, shortened: as §1

T2 sequence (P47871 26-477): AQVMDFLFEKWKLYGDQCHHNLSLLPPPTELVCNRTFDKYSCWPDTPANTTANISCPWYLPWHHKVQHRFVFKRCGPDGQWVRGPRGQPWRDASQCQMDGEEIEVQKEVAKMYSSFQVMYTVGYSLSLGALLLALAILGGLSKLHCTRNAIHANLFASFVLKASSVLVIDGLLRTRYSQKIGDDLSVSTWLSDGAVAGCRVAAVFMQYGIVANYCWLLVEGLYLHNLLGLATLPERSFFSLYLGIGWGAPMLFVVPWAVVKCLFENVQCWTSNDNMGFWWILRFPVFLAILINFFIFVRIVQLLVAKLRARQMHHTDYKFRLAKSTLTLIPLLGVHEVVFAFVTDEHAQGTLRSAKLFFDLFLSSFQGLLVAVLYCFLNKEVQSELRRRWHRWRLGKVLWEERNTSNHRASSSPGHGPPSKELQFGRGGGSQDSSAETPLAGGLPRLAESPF
Sequence of hGLP-1R (P43220 24-463): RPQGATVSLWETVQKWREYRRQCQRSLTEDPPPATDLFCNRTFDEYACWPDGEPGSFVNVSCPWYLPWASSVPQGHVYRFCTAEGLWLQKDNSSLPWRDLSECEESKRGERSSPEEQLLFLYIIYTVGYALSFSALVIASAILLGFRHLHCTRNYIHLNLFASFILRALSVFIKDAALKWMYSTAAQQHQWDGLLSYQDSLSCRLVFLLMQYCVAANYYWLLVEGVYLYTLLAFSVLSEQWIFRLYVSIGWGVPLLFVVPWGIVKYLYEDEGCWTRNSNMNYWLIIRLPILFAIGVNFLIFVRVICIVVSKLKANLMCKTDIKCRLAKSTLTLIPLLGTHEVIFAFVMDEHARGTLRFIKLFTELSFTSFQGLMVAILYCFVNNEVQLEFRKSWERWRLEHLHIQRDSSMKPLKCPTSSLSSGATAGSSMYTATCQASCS

Structure (SMILES)	Emax (hGIPR; HEK293, read-out: hGIPR Emax, % ± SEM, cAMP, 37° C., 0.1% bovine casein and 1.0% human serum albumin)	EC50 (hGIPR; hGIPR EC50, nM (SEM, n), 37° C.)	Emax (hGLP-1R; HEK293, read-out: hGLP-1R Emax, % ± SEM, cAMP, 37° C., 0.1% bovine casein)	EC50 (hGLP-1R; hGLP-1R EC50, nM (SEM, n), 37° C.)	EC50 (hGCGR; hGCGR EC50, nM (SEM, n), 0.1% bovine casein (no human serum albumin), geometric mean)	EC50 (hGCGR; hGCGR EC50, nM (SEM, n), 0.1% bovine casein and 1.0% human serum albumin, geometric mean (SEM, n))	Emax (hGIPR; HEK293, cAMP, 37° C., 0.1% bovine casein and 1.0% human serum albumin, read-out: hGIPR Emax, % ± SEM)	EC50 (hGIPR; 37° C., read-out: hGIPR EC50, nM (SEM, n))	Emax (hGLP-1R; HEK293, cAMP, 37° C., 0.1% bovine casein, read-out: hGLP-1R Emax, % ± SEM)	EC50 (hGLP-1R; 37° C., read-out: hGLP-1R EC50, nM (SEM, n))	EC50 (hGCGR; 0.1% bovine casein (no human serum albumin), geometric mean, read-out: hGCGR EC50, nM (SEM, n))	EC50 (hGCGR; 0.1% bovine casein and 1.0% human serum albumin, geometric mean (SEM, n), read-out: hGCGR EC50, nM (SEM, n))
CC[C@H](C)[C@H](NC(=O)[C@H](CC(C)C)NC(=O)[C@](C)(Cc1ccc(O)cc1)NC(=O)[C@H](CCCCNC(=O)COCCOCCNC(=O)COCCOCCNC(=O)CC[C@H](NC(=O)CCCCCCCCCCOc1ccc(C(=O)O)cc1)C(=O)O)NC(=O)[C@@H](NC(=O)[C@H](Cc1ccccc1)NC(=O)[C@H](CCCN)NC(=O)C(C)(C)NC(=O)[C@H](CCC(N)=O)NC(=O)[C@H](C)NC(=O)[C@H](CCC(N)=O)NC(=O)[C@H](CCCN)NC(=O)[C@H](CC(=O)O)NC(=O)[C@H](CC(C)C)NC(=O)[C@](C)(CC(C)C)NC(=O)[C@@H](NC(=O)C(C)(C)NC(=O)[C@H](Cc1ccncc1)NC(=O)[C@H](CC(=O)O)NC(=O)[C@H](CO)NC(=O)[C@@H](NC(=O)[C@](C)(Cc1ccccc1F)NC(=O)[C@@H](NC(=O)CNC(=O)[C@H](CCC(=O)O)NC(=O)C(C)(C)NC(=O)[C@@H](N)Cc1ccc(O)cc1)[C@@H](C)O)[C@@H](C)O)[C@@H](C)CC)[C@@H](C)CC)C(=O)N[C@@H](CCCCNC(=O)COCCOCCNC(=O)COCCOCCNC(=O)CC[C@H](NC(=O)CCCCCCCCCCOc1ccc(C(=O)O)cc1)C(=O)O)C(=O)NCC(=O)NCC(=O)N1CCC[C@H]1C(=O)N[C@@H](CO)C(=O)N[C@@H](CO)C(=O)NCC(=O)N[C@@H](C)C(=O)N1CCC[C@H]1C(=O)N1CCC[C@H]1C(=O)N1CCC[C@H]1C(=O)N[C@@H](CO)C(N)=O [Example 442]	92.1%	0.0129 nM	113%	0.285 nM	> 9950 nM	> 9950 nM						
CC[C@H](C)[C@H](NC(=O)[C@H](CC(C)C)NC(=O)[C@](C)(Cc1ccc(O)cc1)NC(=O)[C@H](CCCCNC(=O)COCCOCCNC(=O)COCCOCCNC(=O)CC[C@H](NC(=O)CCCCCCCCCCCCCCC(=O)O)C(=O)O)NC(=O)[C@@H](NC(=O)[C@H](Cc1ccccc1)NC(=O)[C@H](CCCN)NC(=O)C(C)(C)NC(=O)[C@H](CCC(N)=O)NC(=O)[C@H](C)NC(=O)[C@H](CCC(N)=O)NC(=O)[C@H](CCCN)NC(=O)[C@H](CC(=O)O)NC(=O)[C@H](CC(C)C)NC(=O)[C@](C)(CC(C)C)NC(=O)[C@@H](NC(=O)C(C)(C)NC(=O)[C@H](Cc1ccncc1)NC(=O)[C@H](CC(=O)O)NC(=O)[C@H](CO)NC(=O)[C@@H](NC(=O)[C@](C)(Cc1ccccc1F)NC(=O)[C@@H](NC(=O)CNC(=O)[C@H](CCC(=O)O)NC(=O)C(C)(C)NC(=O)[C@@H](N)Cc1ccc(O)cc1)[C@@H](C)O)[C@@H](C)O)[C@@H](C)CC)[C@@H](C)CC)C(=O)N[C@@H](CCCCNC(=O)COCCOCCNC(=O)COCCOCCNC(=O)CC[C@H](NC(=O)CCCCCCCCCCCCCCC(=O)O)C(=O)O)C(=O)NCC(=O)NCC(=O)N1CCC[C@H]1C(=O)N[C@@H](CO)C(=O)N[C@@H](CO)C(=O)NCC(=O)N[C@@H](C)C(=O)N1CCC[C@H]1C(=O)N1CCC[C@H]1C(=O)N1CCC[C@H]1C(=O)N[C@@H](CO)C(N)=O [Example 443]							91.1%	0.0178 nM	114%	0.294 nM	> 9950 nM	> 9950 nM
